Assays:
[1] = target: T1, human A2B adenosine receptors (Homo sapiens, UniProt P29275); assay: Displacement of [3H]MRE2029F20 binding at human A2B adenosine receptors; settings: [3H]MRE2029F20 displacement, human A2B receptors (footnote: HEK293 cells; method: CHO cells), n = 3-6; geometric mean (95% confidence limits); read-out: Ki hA2B
T1 construct: expressed in transfected cells; host or cells: CHO cells (whole cells)
T1 sequence (P29275 1-332): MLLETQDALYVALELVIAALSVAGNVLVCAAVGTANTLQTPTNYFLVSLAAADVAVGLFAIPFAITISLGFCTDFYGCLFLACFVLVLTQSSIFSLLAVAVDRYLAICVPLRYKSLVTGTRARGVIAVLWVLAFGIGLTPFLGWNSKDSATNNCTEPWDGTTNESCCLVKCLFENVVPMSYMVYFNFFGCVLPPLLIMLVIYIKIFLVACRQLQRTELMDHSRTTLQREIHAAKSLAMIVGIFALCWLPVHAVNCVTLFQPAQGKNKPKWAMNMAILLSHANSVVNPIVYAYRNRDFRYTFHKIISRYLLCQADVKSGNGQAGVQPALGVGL
Description: […] (Naunyn-Schmied. Arch Pharm. 1998, 357: 1-9). Briefly, the cells are grown adherently and maintained in Dulbecco's Modified Eagles Medium with nutrient mixture F12 (DMEM/F12) without nucleosides, containing 10% fetal calf serum, penicillin (100 U/mL), streptomycin (100 μg/mL), L-glutamine (2 mM) and Geneticin (G418, 0.2 mg/ml) at 37° C. in 5% CO2/95% air. For membrane preparation the culture medium is removed and the cells are washed with phosphate-buffered saline and scraped off T75 flasks in ice-cold hypo tonic buffer (5 mM Tris HCl, 1 mM EDTA, pH 7.4). The cell suspension is homogenized with Polytron, the homogenate is spun for 10 min at 1000×g and the supernatant is then centrifuged for 30 min at 100,000×g. The membrane pellet is suspended in 50 mM Tris HCl buffer (pH 7.4) for A1 adenosine receptors, in 50 mM Tris HCl, 10 mM MgCl2 (pH 7.4) for A2A adenosine receptors, in 50 mM Tris HCl, 10 mM MgCl2, 1 mM EDTA (pH 7.4) for A2B and A3 adenosine receptors.
All new synthesized compounds have been tested to evaluate their affinity to human A1, A2A, A2B and A3 adenosine receptors. […] Pharmacol., 2000, 57: 968-975). Non-specific binding is determined in the presence of 10 μM of CHA and this is always ≦10% of the total binding. […] recombinant A2A adenosine receptors is performed using a suspension of membranes (50 μg of protein/assay) and at least 6-8 different concentrations of studied antagonists for an incubation time of 60 min at 4° C. Non-specific binding is determined in the presence of 1 μM ZM 241385 and is about 20% of total binding. […] Non-specific binding is defined as binding in the presence of 1 μM MRE 3029F20 and is about 25% of total binding. […] Non-specific binding is defined as binding in the presence of 1 μM MRE 3008F20 and is about 25% of total binding. Bound and free radioactivity are separated by filtering the assay mixture through Whatman GF/B glass fiber filters using a Micro-Mate 196 cell harvester (Packard Instrument Co.). The filter bound radioactivity is counted on a Top Count (efficiency 57%) with Micro-Scint 20.
(§1) The protein concentration is determined according to a Bio-Rad method (Bradford, Anal Biochem. 1976, 72: 248-254) with bovine albumin as a standard reference. Inhibitory binding constant, Ki, values are calculated from those of IC50 according to Cheng & Prusoff equation (Biochem. Pharmacol 1973, 22: 3099-3108): Ki=IC50/(1+[C*]/KD*) where [C*] is the concentration of the radioligand and KD* its dissociation constant. A weighted non linear least-squares curve fitting program LIGAND (Munson et al., Anal. Biochem 1980, 107: 220-239) is used for computer analysis of inhibition experiments Data are expressed as geometric mean with 95% confidence limits in parentheses. Examples of Animal Models

[2] = target: T1, human A2B adenosine receptors; assay: cAMP assay in CHO cells expressing human A2B adenosine receptors (antagonism of NECA-induced cAMP); format: cell-based; settings: antagonism of NECA (100 nM)-induced cAMP, geometric mean (95% confidence limits), read-out: IC50 hA2B (cAMP assay)
Description: Measurement of Cyclic AMP Levels in CHO Cells Transfected with Human A2B Adenosine Receptors
CHO cells transfected with human A2B adenosine receptors are washed with phosphate-buffered saline, diluted trypsine and centrifuged for 10 min at 200 g. The pellet containing the CHO cells (1×10^6 cells/assay) is suspended in 0.5 mL of incubation mixture: NaCl 150 mM, KCl 2.7 mM, NaH2PO4 0.37 mM, MgSO4 1 mM, CaCl2 1 mM, Hepes 5 mM, MgCl2 10 mM, glucose 5 mM, pH 7.4 at 37° C. Then 2.0 IU/mL adenosine deaminase and 0.5 mM 4-(3-butoxy-4-methoxybenzyl)-2-imidazolidinone (Ro 20-1724) as phosphodiesterase inhibitor are added and preincubated for 10 min a shaking bath at 37° C. The potency of antagonists studied are determined by antagonism of NECA (100 nM)-induced stimulation of cyclic AMP levels. The reaction is terminated by the addition of cold 6% thrichloroacetic acid (TCA). The TCA suspension is centrifuged at 2000 g for 10 min at 4° C. and the supernatant is extracted four times with water saturated diethyl ether. The final aqueous solution is tested for cyclic AMP levels by a competition protein binding assay. Samples of cyclic AMP standard ([…]) are added to each test tube containing the incubation buffer (trizma base 0.1 M, aminophylline 8.0 mM, 2-mercaptoethanol 6.0 mM (pH 7.4) and [^3H]cyclic AMP in a total volume of 0.5 mL. The binding protein previously prepared from beef adrenals, is added to the samples previously incubated at 4° C. for 150 min, and after the addition of charcoal are centrifuged at 2000 g for 10 min. The clear supernatant is counted with 4 mL of Atomlight liquid scintillator and counted in a Tri Carb Packard 2500 TR scintillation counter.
as §1

Row | Structure (SMILES) | Ki [1] [nM] | IC50 [2] [nM] | melting point [°C]
1 | CCCn1c(=O)c2[nH]c(-c3cc(C)n(CC(=O)Nc4ccccc4)n3)nc2n(CCC)c1=O [Example 1, 2-[3-(2,6-Dioxo-1,3-dipropyl-2,3,6,7-tetrahydro-1H-purin-8-yl)-5-methyl-pyrazol-1-yl]-N-phenyl-acetamide] | 15 | 58 | 255 to 257
2 | CCCn1c(=O)c2[nH]c(-c3cc(C)n(CC(=O)Nc4ccc(I)cc4)n3)nc2n(CCC)c1=O [Example 2, 2-[3-(2,6-Dioxo-1,3-dipropyl-2,3,6,7-tetrahydro-1H-purin-8-yl)-5-methyl-pyrazol-1-yl]-N-(4-iodophenyl)-acetamide] | 28 | 115 | 286 to 289
3 | CCCn1c(=O)c2[nH]c(-c3cc(C)n(CC(=O)Nc4ccc(F)cc4)n3)nc2n(CCC)c1=O [Example 5, 2-[3-(2,6-Dioxo-1,3-dipropyl-2,3,6,7-tetrahydro-1H-purin-8-yl)-5-methyl-pyrazol-1-yl]-N-(4-fluoro-phenyl)-acetamide] | 14 | 68 | 205 to 207
4 | CCCn1c(=O)c2[nH]c(-c3cc(C)n(CC(=O)Nc4ccc(OC)cc4)n3)nc2n(CCC)c1=O [Example 6, 2-[3-(2,6-Dioxo-1,3-dipropyl-2,3,6,7-tetrahydro-1H-purin-8-yl)-5-methyl-pyrazol-1-yl]-N-(4-methoxyphenyl)-acetamide] | 12 | 61 | 293 to 296
5 | CCCn1c(=O)c2[nH]c(-c3cc(C)n(CC(=O)Nc4ccc(C)c(C)c4)n3)nc2n(CCC)c1=O [Example 7, 2-[3-(2,6-Dioxo-1,3-dipropyl-2,3,6,7-tetrahydro-1H-purin-8-yl)-5-methyl-pyrazol-1-yl]-N-(3,4-dimethylphenyl)-acetamide] | 48 | 200 | 261 to 265
6 | CCCn1c(=O)c2[nH]c(-c3cc(C)n(CC(=O)Nc4ccc(OC)c(OC)c4)n3)nc2n(CCC)c1=O [Example 8, 2-[3-(2,6-Dioxo-1,3-dipropyl-2,3,6,7-tetrahydro-1H-purin-8-yl)-5-methyl-pyrazol-1-yl]-N-(3,4-dimethoxyphenyl)-acetamide] | 60 | 222 | 285 to 290
7 | CCCn1c(=O)c2[nH]c(-c3ccn(CC(=O)Nc4ccc(Cl)cc4)n3)nc2n(CCC)c1=O [Example 10, 2-[3-(2,6-Dioxo-1,3-dipropyl-2,3,6,7-tetrahydro-1H-purin-8-yl)-pyrazol-1-yl]-N-(4-chloro-phenyl)-acetamide] | 20 | 80 | 283 to 285
8 | CCCn1c(=O)c2[nH]c(-c3cc(C)n(CC(=O)Nc4ccc(C(C)CC)cc4)n3)nc2n(CCC)c1=O (centres unmarked) [Example 12, 2-[3-(2,6-Dioxo-1,3-dipropyl-2,3,6,7-tetrahydro-1H-purin-8-yl)-5-methyl-pyrazol-1-yl]-N-(4-sec-butylphenyl)-acetamide] | > 1000 | > 1000 | 268 to 271

Now from value to compound:

Row | Ki [1] [nM] | IC50 [2] [nM] | melting point [°C] | Structure (SMILES)
9 | 65 | 266 | 274 to 277 | CCCn1c(=O)c2[nH]c(-c3cc(C)n(CC(=O)Nc4cccc(OC)c4)n3)nc2n(CCC)c1=O [Example 14, 2-[3-(2,6-Dioxo-1,3-dipropyl-2,3,6,7-tetrahydro-1H-purin-8-yl)-5-methyl-pyrazol-1-yl]-N-(3-methoxylphenyl)-acetamide]
10 | 28 | 106 | 304 to 307 | CCCn1c(=O)c2[nH]c(-c3cc(C)n(CC(=O)Nc4cccc(Cl)c4)n3)nc2n(CCC)c1=O [Example 15, 2-[3-(2,6-Dioxo-1,3-dipropyl-2,3,6,7-tetrahydro-1H-purin-8-yl)-5-methyl-pyrazol-1-yl]-N-(3-chlorophenyl)-acetamide]
11 | 40 | 188 | 298 | CCCn1c(=O)c2[nH]c(-c3cc(C)n(CC(=O)Nc4ccc(Cl)c(Cl)c4)n3)nc2n(CCC)c1=O [Example 16, 2-[3-(2,6-Dioxo-1,3-dipropyl-2,3,6,7-tetrahydro-1H-purin-8-yl)-5-methyl-pyrazol-1-yl]-N-(3,4-dichlorophenyl)-acetamide]
12 | 56 | 212 | > 300 | CCCn1c(=O)c2[nH]c(-c3cc(C)n(CC(=O)Nc4ccc(C)cc4)n3)nc2n(CCC)c1=O [Example 17, 2-[3-(2,6-Dioxo-1,3-dipropyl-2,3,6,7-tetrahydro-1H-purin-8-yl)-5-methyl-pyrazol-1-yl]-N-p-tolyl-acetamide]
13 | 222 | > 1000 | – | CCCn1c(=O)c2[nH]c(-c3nn(CC(=O)Nc4ccc(Cl)cc4)c(C)c3Cl)nc2n(CCC)c1=O [Example 18, 2-[4-Chloro-3-(2,6-dioxo-1,3-dipropyl-2,3,6,7-tetrahydro-1H-purin-8-yl)-5-methyl-pyrazol-1-yl]-N-(4-chlorophenyl)-acetamide]
14 | 250 | > 1000 | 298 to 299 | CCCn1c(=O)c2[nH]c(-c3nn(CC(=O)Nc4ccc(Cl)cc4)c(C)c3Br)nc2n(CCC)c1=O [Example 19, 2-[4-Bromo-3-(2,6-dioxo-1,3-dipropyl-2,3,6,7-tetrahydro-1H-purin-8-yl)-5-methyl-pyrazol-1-yl]-N-(4-chlorophenyl)-acetamide]
